# Active and inactive are the calls of the source.
# What was measured:
# [1] = viability loss in HeLa cells – cytotoxicity control for MgcRacGAP inhibitor project, dose response (AID 624300); assay type: functional
# [2] = target: T1, Zinc finger protein mex-5 (Caenorhabditis elegans, UniProt Q9XUB2); assay: potency of MEX-5 RNA-binding blockers – biochemical, C. elegans, fluorescence polarization, dose response (AID 1960)
# T1 sequence (Q9XUB2 whole entry): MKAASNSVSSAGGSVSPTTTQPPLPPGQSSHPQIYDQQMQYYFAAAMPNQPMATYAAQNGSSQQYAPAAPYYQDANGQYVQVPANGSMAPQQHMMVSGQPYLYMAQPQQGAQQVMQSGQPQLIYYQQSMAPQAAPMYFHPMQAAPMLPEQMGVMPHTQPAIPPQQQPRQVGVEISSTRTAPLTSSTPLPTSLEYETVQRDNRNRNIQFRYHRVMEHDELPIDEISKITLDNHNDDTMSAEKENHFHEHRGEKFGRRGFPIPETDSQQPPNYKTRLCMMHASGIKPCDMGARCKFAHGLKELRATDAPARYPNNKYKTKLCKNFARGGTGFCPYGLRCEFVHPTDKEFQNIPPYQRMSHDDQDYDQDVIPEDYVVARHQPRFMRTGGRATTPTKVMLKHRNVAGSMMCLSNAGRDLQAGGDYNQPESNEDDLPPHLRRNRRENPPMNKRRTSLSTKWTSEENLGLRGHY
# [3] = target: T2, Short transient receptor potential channel 4 (Mus musculus, UniProt Q9QUQ5); assay: block of DAMGO-driven TRPC4 calcium entry – cell-based, HEK293 TRPC4/mu-opioid, Fluo-4 calcium, dose response (AID 434942); assay type: functional;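 also: potency of inhibitors blocking the TRPC4 calcium response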
# T2 sequence (Q9QUQ5 whole entry): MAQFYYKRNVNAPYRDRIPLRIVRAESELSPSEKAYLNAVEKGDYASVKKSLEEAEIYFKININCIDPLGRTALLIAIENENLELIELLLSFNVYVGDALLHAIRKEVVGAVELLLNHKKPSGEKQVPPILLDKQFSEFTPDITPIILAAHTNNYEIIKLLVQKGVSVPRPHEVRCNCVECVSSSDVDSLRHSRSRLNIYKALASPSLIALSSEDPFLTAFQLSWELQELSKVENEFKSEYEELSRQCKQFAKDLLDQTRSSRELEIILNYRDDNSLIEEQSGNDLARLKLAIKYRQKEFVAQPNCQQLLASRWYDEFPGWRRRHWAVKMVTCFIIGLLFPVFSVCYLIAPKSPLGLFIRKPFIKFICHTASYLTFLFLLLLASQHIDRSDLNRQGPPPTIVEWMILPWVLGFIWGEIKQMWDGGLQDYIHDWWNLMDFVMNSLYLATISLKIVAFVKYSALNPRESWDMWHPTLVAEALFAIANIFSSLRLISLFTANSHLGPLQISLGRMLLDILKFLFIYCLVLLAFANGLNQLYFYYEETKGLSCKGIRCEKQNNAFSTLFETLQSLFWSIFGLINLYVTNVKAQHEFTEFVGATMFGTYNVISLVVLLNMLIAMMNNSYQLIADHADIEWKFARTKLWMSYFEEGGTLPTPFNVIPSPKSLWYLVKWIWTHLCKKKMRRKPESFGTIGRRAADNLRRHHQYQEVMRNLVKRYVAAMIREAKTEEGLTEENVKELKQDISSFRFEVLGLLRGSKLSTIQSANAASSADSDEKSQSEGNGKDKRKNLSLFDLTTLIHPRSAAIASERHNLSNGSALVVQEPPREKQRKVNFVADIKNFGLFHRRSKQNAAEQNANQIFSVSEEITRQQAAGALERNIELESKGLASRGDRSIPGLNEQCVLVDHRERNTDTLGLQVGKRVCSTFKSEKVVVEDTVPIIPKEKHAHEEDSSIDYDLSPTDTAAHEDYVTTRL
# [4] = target: FAD-linked sulfhydryl oxidase ALR (Homo sapiens, UniProt P55789); assay: ALR-catalysed DTT oxidation blockers – biochemical, H2O2 detection, luminescence, cherry-pick, dose response (AID 493248)
# FAD-linked sulfhydryl oxidase ALR, sequence (P55789 whole entry, the tested form may be a part): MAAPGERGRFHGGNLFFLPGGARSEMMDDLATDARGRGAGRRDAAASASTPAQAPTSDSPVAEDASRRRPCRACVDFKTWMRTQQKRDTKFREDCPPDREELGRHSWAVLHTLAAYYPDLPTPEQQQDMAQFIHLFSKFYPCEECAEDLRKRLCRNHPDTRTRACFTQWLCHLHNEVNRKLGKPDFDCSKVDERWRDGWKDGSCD
# [5] = target: T3, RNA-binding protein pos-1 (Caenorhabditis elegans, UniProt G5EF15); assay: disruptors of C. elegans POS-1 RNA interaction – biochemical, fluorescence polarization, dose response (AID 1964);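 also: purified POS-1 fused to maltose binding protein made in E. coli; potency of compounds blocking POS-1 binding to fluorescent RNA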
# T3 sequence (G5EF15 whole entry): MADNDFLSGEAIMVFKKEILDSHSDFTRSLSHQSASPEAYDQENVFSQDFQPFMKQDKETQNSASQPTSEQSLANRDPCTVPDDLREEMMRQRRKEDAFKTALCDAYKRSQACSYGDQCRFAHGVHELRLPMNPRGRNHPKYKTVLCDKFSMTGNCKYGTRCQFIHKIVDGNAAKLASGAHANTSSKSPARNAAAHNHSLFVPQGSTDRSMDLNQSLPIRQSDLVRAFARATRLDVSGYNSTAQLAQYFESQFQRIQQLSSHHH
# [6] = target: Transitional endoplasmic reticulum ATPase (Homo sapiens, UniProt P55072); assay: p97 ATPase inhibitors, dose response, biochemical (AID 1534)
# Transitional endoplasmic reticulum ATPase (Homo sapiens, UniProt P55072), sequence (P55072 whole entry): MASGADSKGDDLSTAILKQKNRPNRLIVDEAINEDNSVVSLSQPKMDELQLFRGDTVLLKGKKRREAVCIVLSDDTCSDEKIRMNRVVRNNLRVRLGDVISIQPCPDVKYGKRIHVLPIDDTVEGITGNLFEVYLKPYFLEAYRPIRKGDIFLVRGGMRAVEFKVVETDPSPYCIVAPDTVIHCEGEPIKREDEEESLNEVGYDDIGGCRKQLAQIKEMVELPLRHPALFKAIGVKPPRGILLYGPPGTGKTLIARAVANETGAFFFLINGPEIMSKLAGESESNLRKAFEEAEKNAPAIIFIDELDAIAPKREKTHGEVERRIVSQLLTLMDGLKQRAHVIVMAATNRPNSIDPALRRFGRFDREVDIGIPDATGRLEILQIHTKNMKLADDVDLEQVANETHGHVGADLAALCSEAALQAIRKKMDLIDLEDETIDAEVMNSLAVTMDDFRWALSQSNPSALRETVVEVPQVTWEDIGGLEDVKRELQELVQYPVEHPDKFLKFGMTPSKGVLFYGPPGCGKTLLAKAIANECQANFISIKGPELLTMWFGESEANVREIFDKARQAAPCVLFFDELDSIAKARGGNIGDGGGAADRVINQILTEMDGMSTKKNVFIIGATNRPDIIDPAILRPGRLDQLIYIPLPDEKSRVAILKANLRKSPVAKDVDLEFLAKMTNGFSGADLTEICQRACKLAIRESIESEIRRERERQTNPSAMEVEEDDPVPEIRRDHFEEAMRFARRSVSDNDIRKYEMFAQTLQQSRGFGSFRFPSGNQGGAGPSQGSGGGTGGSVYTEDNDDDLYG
# [7] = target: T4, Rac GTPase-activating protein 1 (Homo sapiens, UniProt Q9H0H5); assay: blockers of MgcRacGAP-driven Rac1 GTP hydrolysis – biochemical, ADP Hunter fluorescence, primary and confirmatory, confirmation (AID 624330); assay type: functional
# T4 sequence (Q9H0H5 whole entry): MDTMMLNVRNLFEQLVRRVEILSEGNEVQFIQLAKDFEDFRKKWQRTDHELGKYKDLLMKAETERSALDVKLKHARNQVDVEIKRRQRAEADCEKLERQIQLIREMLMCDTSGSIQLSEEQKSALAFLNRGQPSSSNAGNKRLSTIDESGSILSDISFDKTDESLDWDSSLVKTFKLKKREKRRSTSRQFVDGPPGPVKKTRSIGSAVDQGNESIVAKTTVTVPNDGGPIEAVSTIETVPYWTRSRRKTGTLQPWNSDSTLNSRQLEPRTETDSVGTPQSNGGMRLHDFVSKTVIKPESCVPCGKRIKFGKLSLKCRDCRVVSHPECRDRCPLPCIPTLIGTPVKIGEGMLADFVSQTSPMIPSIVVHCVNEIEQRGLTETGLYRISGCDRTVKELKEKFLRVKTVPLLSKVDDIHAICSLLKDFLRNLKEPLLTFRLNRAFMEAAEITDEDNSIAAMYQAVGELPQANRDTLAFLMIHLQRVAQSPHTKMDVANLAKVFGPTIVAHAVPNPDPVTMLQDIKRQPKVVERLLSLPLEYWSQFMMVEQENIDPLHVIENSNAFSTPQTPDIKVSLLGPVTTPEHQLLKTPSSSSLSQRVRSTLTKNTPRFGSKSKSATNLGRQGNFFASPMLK
# [8] = target: Transitional endoplasmic reticulum ATPase (Homo sapiens, UniProt P55072, C522A); assay: C522A mutant p97 ATPase inhibitors, dose response, counter-screen for p97 inhibitor project, biochemical, luminescence (AID 1544)
# Transitional endoplasmic reticulum ATPase (Homo sapiens, UniProt P55072, C522A), sequence (P55072 2-806 C522A limits assumed): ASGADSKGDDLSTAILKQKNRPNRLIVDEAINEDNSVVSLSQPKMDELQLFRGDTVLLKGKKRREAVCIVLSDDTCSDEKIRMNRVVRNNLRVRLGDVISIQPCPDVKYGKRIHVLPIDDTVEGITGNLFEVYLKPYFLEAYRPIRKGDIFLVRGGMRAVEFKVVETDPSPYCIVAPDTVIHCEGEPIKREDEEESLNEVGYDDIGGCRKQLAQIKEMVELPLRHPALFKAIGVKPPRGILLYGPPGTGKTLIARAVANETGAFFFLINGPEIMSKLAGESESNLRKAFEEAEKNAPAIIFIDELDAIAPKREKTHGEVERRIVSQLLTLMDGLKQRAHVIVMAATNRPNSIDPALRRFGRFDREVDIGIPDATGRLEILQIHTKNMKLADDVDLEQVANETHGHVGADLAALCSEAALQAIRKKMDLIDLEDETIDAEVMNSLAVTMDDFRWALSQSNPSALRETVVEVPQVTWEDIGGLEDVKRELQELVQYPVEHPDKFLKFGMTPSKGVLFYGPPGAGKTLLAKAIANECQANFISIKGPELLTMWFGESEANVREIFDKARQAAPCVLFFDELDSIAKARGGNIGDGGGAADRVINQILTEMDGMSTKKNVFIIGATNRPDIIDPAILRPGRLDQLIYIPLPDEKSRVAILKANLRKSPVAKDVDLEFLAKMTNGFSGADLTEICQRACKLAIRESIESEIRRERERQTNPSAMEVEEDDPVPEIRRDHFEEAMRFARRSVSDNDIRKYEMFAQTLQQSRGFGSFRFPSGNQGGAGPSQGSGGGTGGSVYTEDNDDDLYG
# [9] = target: Dual specificity tyrosine-phosphorylation-regulated kinase 1A (Rattus norvegicus, UniProt Q63470); assay type: biochemical, Homo sapiens
# Large T antigen = Large T antigen (Simian virus 40, UniProt P03070); assay type: functional, Betapolyomavirus macacae;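 also: Confirmatory-stage PubChem screen for compounds that inhibit SV40 T antigen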
# Large T antigen, sequence (P03070 whole entry): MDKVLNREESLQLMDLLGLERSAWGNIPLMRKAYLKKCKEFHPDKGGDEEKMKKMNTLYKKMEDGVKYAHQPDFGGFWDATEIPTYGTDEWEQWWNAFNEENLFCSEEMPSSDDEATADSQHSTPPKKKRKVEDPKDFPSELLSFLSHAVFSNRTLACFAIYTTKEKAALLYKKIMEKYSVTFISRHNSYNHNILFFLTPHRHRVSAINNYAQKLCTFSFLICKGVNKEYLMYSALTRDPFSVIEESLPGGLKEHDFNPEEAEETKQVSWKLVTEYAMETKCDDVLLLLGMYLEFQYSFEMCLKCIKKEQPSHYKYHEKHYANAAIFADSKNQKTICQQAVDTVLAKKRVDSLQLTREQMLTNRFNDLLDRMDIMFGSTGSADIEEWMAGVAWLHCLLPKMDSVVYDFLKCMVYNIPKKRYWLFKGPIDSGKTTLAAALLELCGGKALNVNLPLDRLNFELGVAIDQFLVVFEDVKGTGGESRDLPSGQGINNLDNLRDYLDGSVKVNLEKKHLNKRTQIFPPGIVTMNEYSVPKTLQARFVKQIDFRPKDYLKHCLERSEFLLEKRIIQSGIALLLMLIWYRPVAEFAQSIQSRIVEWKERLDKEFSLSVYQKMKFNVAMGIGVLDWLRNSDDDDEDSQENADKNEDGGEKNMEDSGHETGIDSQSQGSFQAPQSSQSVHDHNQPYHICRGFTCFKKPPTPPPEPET
# SUMO-activating enzyme [10] = target: T5, SUMO-activating enzyme (Homo sapiens, UniProt Q9UBT2); assay: blockers of UBC9-mediated SUMO conjugation – biochemical, AlphaScreen, SUMOylation inhibitor project, confirmation (AID 2018); assay type: functional
# T5 sequence (Q9UBE0 whole entry): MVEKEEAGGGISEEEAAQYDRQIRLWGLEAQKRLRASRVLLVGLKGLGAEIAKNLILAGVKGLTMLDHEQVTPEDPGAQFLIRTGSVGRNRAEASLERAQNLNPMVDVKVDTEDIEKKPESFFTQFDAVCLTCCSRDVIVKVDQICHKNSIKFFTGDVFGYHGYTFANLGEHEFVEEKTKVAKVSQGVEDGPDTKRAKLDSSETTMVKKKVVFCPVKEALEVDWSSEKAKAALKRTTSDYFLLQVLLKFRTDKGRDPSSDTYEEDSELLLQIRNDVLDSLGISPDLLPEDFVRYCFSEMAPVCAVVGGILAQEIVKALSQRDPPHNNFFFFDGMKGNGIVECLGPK
# T5 sequence (Q9UBT2 whole entry): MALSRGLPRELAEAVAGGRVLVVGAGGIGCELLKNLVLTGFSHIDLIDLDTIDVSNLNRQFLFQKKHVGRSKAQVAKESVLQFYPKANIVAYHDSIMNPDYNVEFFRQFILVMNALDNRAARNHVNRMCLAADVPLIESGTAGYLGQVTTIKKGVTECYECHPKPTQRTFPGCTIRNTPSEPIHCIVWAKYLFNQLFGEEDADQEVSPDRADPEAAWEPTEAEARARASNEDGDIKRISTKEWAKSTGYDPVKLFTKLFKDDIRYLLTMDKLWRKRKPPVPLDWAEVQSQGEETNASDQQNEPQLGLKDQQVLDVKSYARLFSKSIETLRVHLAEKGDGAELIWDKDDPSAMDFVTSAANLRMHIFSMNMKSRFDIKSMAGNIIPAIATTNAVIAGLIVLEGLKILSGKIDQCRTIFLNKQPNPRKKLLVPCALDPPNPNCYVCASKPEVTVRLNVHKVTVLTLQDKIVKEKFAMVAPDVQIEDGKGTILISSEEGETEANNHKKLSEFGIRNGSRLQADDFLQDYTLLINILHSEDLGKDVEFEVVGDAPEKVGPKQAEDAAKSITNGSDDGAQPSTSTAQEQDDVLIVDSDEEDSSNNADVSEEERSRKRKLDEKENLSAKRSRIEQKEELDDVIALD
# Cytochrome P450 1A2 = target: T6, Cytochrome P450 1A2 (Homo sapiens, UniProt P05177);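 also: PubChem cytochrome P450 panel assay, CYP1A2 panel member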
# T6 sequence (P05177 whole entry): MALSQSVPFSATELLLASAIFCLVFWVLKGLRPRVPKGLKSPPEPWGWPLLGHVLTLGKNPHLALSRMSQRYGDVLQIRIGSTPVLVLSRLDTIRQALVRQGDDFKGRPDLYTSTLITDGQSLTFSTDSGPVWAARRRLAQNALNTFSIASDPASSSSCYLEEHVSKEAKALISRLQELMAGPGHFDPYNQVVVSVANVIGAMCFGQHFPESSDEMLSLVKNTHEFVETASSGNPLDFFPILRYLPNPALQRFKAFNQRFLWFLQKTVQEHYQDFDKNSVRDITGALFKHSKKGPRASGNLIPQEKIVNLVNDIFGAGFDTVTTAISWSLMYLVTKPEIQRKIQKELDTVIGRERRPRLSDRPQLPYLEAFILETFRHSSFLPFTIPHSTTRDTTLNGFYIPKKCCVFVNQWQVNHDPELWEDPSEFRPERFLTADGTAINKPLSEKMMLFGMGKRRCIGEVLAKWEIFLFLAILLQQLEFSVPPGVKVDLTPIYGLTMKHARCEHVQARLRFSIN
# Cytochrome P450 2C19 = Cytochrome P450 2C19 (Homo sapiens, UniProt P33261); assay: Cytochrome panel assay with activity outcomes. Panel member name: p450-cyp2c19 Compounds with AC50 equal or less than 10 uM are considered active; assay type: functional; details: read-out: AC50
# SUMO-activating enzyme [11] = target: T5, SUMO-activating enzyme; assay: blockers of SAE1/SAE2–UBC9 SUMO transfer – biochemical, HTRF, uHTS, primary screen (AID 2006); assay type: protein-complex assay
# Cytochrome P450 2D6 = Cytochrome P450 2D6 (Homo sapiens, UniProt P10635);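 also: CYP2D6 member of a cytochrome P450 panel assay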
# Cytochrome P450 2D6, sequence (P10635 whole entry): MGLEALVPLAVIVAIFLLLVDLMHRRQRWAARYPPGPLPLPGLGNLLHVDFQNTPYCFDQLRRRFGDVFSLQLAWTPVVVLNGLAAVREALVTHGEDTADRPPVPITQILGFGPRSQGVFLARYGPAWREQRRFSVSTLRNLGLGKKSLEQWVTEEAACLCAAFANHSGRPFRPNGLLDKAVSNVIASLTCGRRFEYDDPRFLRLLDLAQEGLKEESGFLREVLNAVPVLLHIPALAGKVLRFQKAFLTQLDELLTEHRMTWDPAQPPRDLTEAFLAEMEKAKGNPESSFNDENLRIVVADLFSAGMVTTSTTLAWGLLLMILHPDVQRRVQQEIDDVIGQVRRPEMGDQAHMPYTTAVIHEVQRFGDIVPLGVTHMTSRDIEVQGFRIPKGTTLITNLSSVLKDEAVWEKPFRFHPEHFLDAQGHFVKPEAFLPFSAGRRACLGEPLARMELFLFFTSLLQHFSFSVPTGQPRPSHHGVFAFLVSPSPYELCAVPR
# Streptokinase A = target: T7, Streptokinase A (Streptococcus pyogenes serotype M1, UniProt P10520); assay: viability-normalized secreted streptokinase activity reduction – plasminogen activation absorbance, OD405, dose response (AID 1914); assay type: functional, Streptococcus pyogenes M1 GAS;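 also: secreted streptokinase activity via plasminogen activation per viability signal from cell pellet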
# T7 sequence (P10520 whole entry): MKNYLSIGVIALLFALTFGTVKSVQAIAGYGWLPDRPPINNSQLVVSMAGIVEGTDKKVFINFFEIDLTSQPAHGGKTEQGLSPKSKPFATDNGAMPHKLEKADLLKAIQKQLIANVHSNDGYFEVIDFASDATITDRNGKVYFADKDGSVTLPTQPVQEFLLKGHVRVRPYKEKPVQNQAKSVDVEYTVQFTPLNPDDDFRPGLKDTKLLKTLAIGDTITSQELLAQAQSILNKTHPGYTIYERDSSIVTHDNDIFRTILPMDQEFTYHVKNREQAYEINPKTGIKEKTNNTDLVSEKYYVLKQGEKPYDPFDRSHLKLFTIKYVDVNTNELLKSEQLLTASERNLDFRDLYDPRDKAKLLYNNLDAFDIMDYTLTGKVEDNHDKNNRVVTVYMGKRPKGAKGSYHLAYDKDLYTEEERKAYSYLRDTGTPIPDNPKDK
# [12] = test system: Streptococcus sp. 'group A'; assay: Streptococcus pyogenes SK(-)GAS viability under kanamycin – luminescence, BacTiterGlo, confirmation, counter-screen for streptokinase expression inhibitor project, dose response (AID 1900); assay type: functional, organism-based
# Streptococcus [13] = assay: GAS UMAA2166 growth inhibition – luminescence, BacTiterGlo, counter-screen for streptokinase expression inhibitor project, dose response (AID 1915); assay type: functional, organism-based;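 also: potency for reduction of bacterial viability or growth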
# Streptococcus [14] = assay: Luminescence Microorganism-Based Dose Response Follow up to Identify Compounds Cytotoxic to Streptococcus. [Related pubchem assays: 1677 (Project Summary), 1915, 1914, 1902 (Retest at Dose), 1900 (Counter Screen), 1662 (Primary HTS)]; assay type: functional, organism-based
# [15] = target: Neuropeptides B/W receptor type 1 (Homo sapiens, UniProt P48145); assay: Fluorescence-based dose response cell-based high throughput screening assay to identify antagonists of the G-protein coupled receptor 7 (GPR7). [Related pubchem assays: 1952 (Screening assay (GPR7 antagonists).), 1880 (Summary AID.)]; assay type: functional
# Neuropeptides B/W receptor type 1, sequence (P48145 whole entry): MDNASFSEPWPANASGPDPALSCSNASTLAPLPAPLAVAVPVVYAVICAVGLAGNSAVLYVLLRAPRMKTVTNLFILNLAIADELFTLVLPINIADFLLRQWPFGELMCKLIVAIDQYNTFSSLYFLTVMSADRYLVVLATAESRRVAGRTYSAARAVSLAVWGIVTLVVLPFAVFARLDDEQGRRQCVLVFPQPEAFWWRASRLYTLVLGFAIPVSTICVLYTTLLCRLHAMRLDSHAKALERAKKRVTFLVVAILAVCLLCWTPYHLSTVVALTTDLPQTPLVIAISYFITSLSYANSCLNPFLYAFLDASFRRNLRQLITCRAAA
# [16] = target: Melanin-concentrating hormone receptor 1 (Homo sapiens, UniProt Q99705); assay: Fluorescence-based counterscreen for antagonists of the G-protein coupled receptor 7 (GPR7): cell-based high throughput dose response assay to identify antagonists of the melanin-concentrating hormone receptor 1 (MCHR1).; assay type: functional
# Melanin-concentrating hormone receptor 1, sequence (Q99705 whole entry): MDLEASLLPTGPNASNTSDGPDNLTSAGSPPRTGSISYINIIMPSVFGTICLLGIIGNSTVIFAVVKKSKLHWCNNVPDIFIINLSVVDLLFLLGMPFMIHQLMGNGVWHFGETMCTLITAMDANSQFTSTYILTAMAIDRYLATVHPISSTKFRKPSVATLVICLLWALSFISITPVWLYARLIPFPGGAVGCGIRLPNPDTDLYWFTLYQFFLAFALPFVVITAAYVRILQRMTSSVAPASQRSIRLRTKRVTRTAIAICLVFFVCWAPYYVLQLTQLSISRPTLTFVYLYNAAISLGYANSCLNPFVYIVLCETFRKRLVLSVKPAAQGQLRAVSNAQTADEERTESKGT
# [17] = viability of uninfected HEp-2 cells – cell-based, HTS, cytotoxicity control for RSV inhibitor project, dose response (AID 2410); assay type: functional; details: human respiratory syncytial virus
structure (smiles),measurement,setting,value
NS(=O)(=O)c1ccc(Nc2nc(-c3ccc(O)cc3O)cs2)cc1,CC50,[1],100 µM (active)
same,EC50,[2],9.7 µM (active)
same,EC50,[3],1.33 µM (active)
same,AC50,[4],3.12 µM (active)
same,EC50,[5],17.1 µM (active)
same,IC50,[6],24.2 µM (not active)
same,IC50,[7],44.5 µM (active)
same,IC50,[8],> 50 µM (not active)
same,AC50,[9],1.94 µM (active)
N=C1/C(=C\c2ccc(SCc3ccco3)o2)C(=O)N=C2SC=NN12,EC50,[2],> 300 µM (not active)
same,IC50,Large T antigen,59.6 µM (active)
same,IC50,SUMO-activating enzyme [10],2.28 µM (active)
same,EC50,[5],> 300 µM (not active)
same,AC50,Cytochrome P450 1A2,1.58 µM (inconclusive)
same,AC50,Cytochrome P450 2C19,15.8 µM (inconclusive)
same,IC50,SUMO-activating enzyme [11],32.7 µM (active)
same,AC50,Cytochrome P450 2D6,15.8 µM (inconclusive)
FC(F)(F)c1nc(N2CCN(c3ccccc3)CC2)nc2c1CCCCC2,EC50,Streptokinase A,5.5 µM (active)
same,EC50,[12],2.83 µM (active)
same,EC50,Streptococcus [13],> 150 µM (not active)
same,EC50,Streptococcus [14],> 500 µM (not active)
Cc1cc(C[n+]2cc(Br)ccc2N)c2ncccc2c1,IC50,[15],> 43.8 µM (not active)
same,IC50,[16],26.2 µM (not active)
same,CC50,[17],46.4 µM (active)
